Patent publication US20040048870A1, “Composition for the prevention and treatment of migraine headaches” (priority 2002, published 2004)

Legend:
[1] = system: migraine; details: 400 mg oral riboflavin once a day; at four months; cited from earlier work
[2] = system: migraine headaches; experiment: patient history of earlier medication (headache questionnaire prior to institution of therapy); format: in vivo, human; details: before therapy; for relief of acute pain by abortive agent: Example 1 patient; for success and side effects of earlier medication: Example 2 patient
Description: There were no accompanying autonomic symptoms. […] The patient was not exposed to xanthines.

[3] = system: migraine; details: 600 mg magnesium orally versus placebo; cited from earlier work
[4] = system: headaches in patients with low serum levels of ionized magnesium; details: intravenous infusion of one gram of magnesium; cited from earlier work

Compound: Cc1cc2nc3c(=O)[nH]c(=O)nc-3n(C[C@H](O)[C@H](O)[C@H](O)CO)c2cc1C [riboflavin, Riboflavin]
- number of days the patients experienced migraine attacks [1]: statistically significant decrease

Compound: CC(=O)Oc1ccccc1C(=O)O [aspirin]
- relief of acute pain by abortive agent [2]: some, but incomplete, relief

Compound: CC(=O)Nc1ccc(O)cc1 [acetaminophen]
- relief of acute pain by abortive agent [2]: some, but incomplete, relief

Compound: CC(C)Cc1ccc(C(C)C(=O)O)cc1 (stereo not shown) [ibuprofen]
- relief of acute pain by abortive agent [2]: some, but incomplete, relief

Compound: CNS(=O)(=O)Cc1ccc2[nH]cc(CCN(C)C)c2c1 [Imitrex]
- success and side effects of earlier medication [2]: varying success with varying side effects

Compound: CCOC(=O)C1(c2ccccc2)CCN(C)CC1 [Demerol]
- success and side effects of earlier medication [2]: varying success with varying side effects

Compound: [Mg+2] [magnesium]
- duration of the attacks [3]: decreased in the magnesium group, but not significantly
- frequency of attacks [3]: significant reduction
- intensity of the attacks [3]: decreased in the magnesium group, but not significantly
- headache relief [4]: relieved headaches
